Test results taken from publication PMC8694143 (Microbiology Spectrum, 2021).
No end group written: not given here.

Key:
[1] = tested on: MRSA 33592; test: Transmission electron microscopy; assay type: cell-based, Staphylococcus aureus; details: 25 μg/mL, PBS, 37°C
Method: Samples for TEM imaging were prepared by diluting MRSA 33592 cultures to an OD of 0.5 in PBS before the cell suspension was treated with 25 μg/mL STIP3-29. Treated and untreated cells were incubated at 37°C. Treated samples were prepared from imaging after 30 min and 4 h of treatment. An untreated control sample was prepared after a 4 h incubation period. Cells from the distinct time points or treatments were harvested by centrifugation, fixed for 4 h using 2% glutaraldehyde, postfixed for 1 h with 1% OsO4, dehydrated with a graded ethanol series, embedded in Epon, and en bloc stained with saturated uranyl acetate in 70% ethanol prior to sectioning. Imaging was performed using a Hitachi HT7700 instrument.

[2] = tested on: 3D EpiDerm skin tissues; test: Tissue cytotoxicity, alamarBlue; assay type: cell-based, human; details: 250 μg/mL (40-fold the MIC), 24 h, data not shown
Method: Cytotoxicity was measured using the 3D EpiDerm skin tissues and HeLa (ATCC CCL-2) cells using a fluorescent reporter of cell viability, alamarBlue (ThermoFisher Scientific). 3D EpiDerm skin tissues (MatTek EPI-200-AFAB) were transferred to a 12-well plate containing 600 μL of AFAB-assay medium supplemented with 10% vol/vol alamarBlue. […] HeLa cells were seeded in a 96-well plate at 2 × 10^4 cells/per well and incubated overnight at 37°C in a humidified 5% CO2 environment to prepare wells at ∼50% confluence for treatments after spent Dulbecco’s modified Eagle’s medium (DMEM) was removed and cells were washed with PBS. Assays were then performed using phenol red-free DMEM supplement with 9% vol/vol alamarBlue and peptide concentrations varying from 3.13 to 200 μg/mL. After a 24 h incubation period, alamarBlue fluorescence emission was measured at 590 nm upon excitation at 560 nm using Varioskan Lux plate reader (Thermo Scientific). Fluorescence intensities of treated cultures were normalized to measurement made for untreated control samples. Experimental data sets were fit to nonlinear dose-response curves to determine IC50 values using Origin 2019.

[3] = tested on: S. auricularis; test: MIC determination in broth; assay type: cell-based, Staphylococcus auricularis; details: isolate from the healthy quarter of a dairy cow; MH broth
Method: (§1) The MICs were measured for bioactive peptides identified from the initial screen. Cation-adjusted Mueller-Hinton (MH) broth was used as the growth medium for MIC determination experiments. Bacterial cultures were diluted to an OD of 5 × 10^−4 (∼10^5 CFU/mL) in 200 μL MH broth mixed with peptides in a 2-fold dilution series arrayed in 96-well plates. Plates were incubated without shaking at 30 or 37°C depending on the organism.

[4] = tested on: MRSA ATCC 33592, ATCC 1683 and S. pseudintermedius SPC002; test: Bactericidal activity time course, short intervals; assay type: cell-based, Staphylococcus aureus; Staphylococcus pseudintermedius; details: 2× MIC, MH broth, 37°C
Method: Time-dependent inhibition of pathogens was measured using standing bacterial cultures treated with 2× MIC. Overnight cultures were diluted to 10^4 or 10^7 CFU/mL in 2 mL of MH broth supplemented with the appropriate peptide concentration or sterile water as a control. Standing cultures were then incubated at 37°C and 100 μL aliquots were removed at specified time intervals. For the panel of 7 MRSA strains, treatment intervals of 30 min, 4 h, 8 h, and 24 h were used. For MRSA ATCC 33592, ATCC 1683, and S. pseudintermedius SPC002, shorter intervals included 5, 30, 60, 120, 240, and 360 min. The 100-μL aliquots were plated using serial dilutions as necessary on LB agar, and CFU were counted as a measure of bacterial viability after 24 h. To normalize cell viability data, surviving cells in CFU/mL were compared to the initial bacterial inoculum of each strain and then expressed as a percentage of that concentration. All experiments were performed in triplicate with values reported as the mean with standard deviations. Statistical differences in the observed viability of bacteria treated with STIP3-29 were analyzed using a paired two-tailed Student’s t test comparing the pretreatment (0 h) viability to those observed at posttreatment time points using Stata v17.0 software.

[5] = tested on: MRSA ATCC BAA-42; test: MIC determination in broth; assay type: cell-based, Staphylococcus aureus; details: STIP3 variants, highest conc. tested 100 μg/mL; cation-adjusted MH broth, ~10^5 CFU/mL, 2-fold dilution series, 37°C, 16 h
Summary of the method: (§2)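 Broth microdilution in cation-adjusted Mueller-Hinton broth; cultures diluted to OD 5 × 10^−4 (∼10^5 CFU/mL) and exposed to 2-fold peptide dilution series. Plates incubated static at 37°C for staphylococci.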

[6] = tested on: MRSA ATCC BAA-41; test: MIC determination in broth; assay type: cell-based, Staphylococcus aureus; details: STIP3 variants, highest conc. tested 100 μg/mL; cation-adjusted MH broth, ~10^5 CFU/mL, 2-fold dilution series, 37°C, 16 h
Summary of the method: as §2

[7] = tested on: MRSA ATCC BAA-1683; test: MIC determination in broth; assay type: cell-based, Staphylococcus aureus; details: STIP3 variants, highest conc. tested 100 μg/mL; cation-adjusted MH broth, ~10^5 CFU/mL, 2-fold dilution series, 37°C, 16 h
Summary of the method: as §2

[8] = tested on: MRSA ATCC BAA-44; test: MIC determination in broth; assay type: cell-based, Staphylococcus aureus; details: STIP3 variants, highest conc. tested 100 μg/mL; cation-adjusted MH broth, ~10^5 CFU/mL, 2-fold dilution series, 37°C, 16 h
Summary of the method: as §2

[9] = tested on: MRSA ATCC 33592; test: MIC determination in broth; assay type: cell-based, Staphylococcus aureus
Summary of the method: as §2

[10] = tested on: MRSA ATCC BAA-2313; test: MIC determination in broth; assay type: cell-based, Staphylococcus aureus; details: STIP3 variants, highest conc. tested 100 μg/mL; cation-adjusted MH broth, ~10^5 CFU/mL, 2-fold dilution series, 37°C, 16 h
Summary of the method: as §2

[11] = tested on: MRSA ATCC BAA-2094; test: MIC determination in broth; assay type: cell-based, Staphylococcus aureus; details: STIP3 variants, highest conc. tested 100 μg/mL; cation-adjusted MH broth, ~10^5 CFU/mL, 2-fold dilution series, 37°C, 16 h
Summary of the method: as §2

[12] = tested on: S. aureus ATCC 29213; test: MIC determination in broth; assay type: cell-based, Staphylococcus aureus; details: STIP3 variants, highest conc. tested 100 μg/mL; cation-adjusted MH broth, ~10^5 CFU/mL, 2-fold dilution series, 37°C, 16 h
Summary of the method: as §2

[13] = Circular dichroism spectroscopy; assay type: physicochemical; details: CD, 50% TFE (vol/vol), peptide 0.2 mg/mL, room temperature
Method: Peptides were dissolved in ultrapure water or 50% TFE (vol/vol) at a concentration of 0.2 mg/mL for spectroscopy. Spectra of samples in a 1 mm pathlength quartz cuvette were recorded from 180 to 260 nm at 0.5 nm steps using an Applied Photophysics Chirascan Plus CD spectrophotometer operating at room temperature.

[14] = tested on: S. equorum; test: MIC determination in broth; assay type: cell-based, Staphylococcus equorum; details: isolate from the healthy quarter of a dairy cow; MH broth
Method: as §1

TVGGLVKWILKTVKKFA-NH2 [STIP3-29]
Peptide-induced lysis by TEM, 30 min ([1]; 30 min): No peptide-induced lysis was observed
Peptide-induced lysis by TEM, 4 h ([1]; 4 h): evidence was present
Tissue-level cytotoxicity, redox-sensitive dye [2]: unable to differentiate STIP3-29-treated and untreated samples
MIC, S. auricularis [3]: 1.56 µg/mL
Viability within 5 min of treatment ([4]; 5 min, all three strains, normalized to the starting cell count): ≤ 40%
Recovery of viable bacteria after 2 h of treatment ([4]; 2 h, detection limit 10 CFU/mL): inability to recover viable bacteria
MIC, S. aureus ATCC BAA 42 (SCCmec VI) [5]: 6.25 µg/mL
MIC, S. aureus ATCC BAA 41 (SCCmec II) [6]: 6.25 µg/mL
MIC, S. aureus ATCC BAA 1683 (SCCmec IV) [7]: 6.25 µg/mL
MIC, S. aureus ATCC BAA 44 (SCCmec I) [8]: 6.25 µg/mL
Improvement to antibiotic activity relative to STIP3-1 ([9]; S. aureus ATCC 29213 and MRSA panel MICs): 16 fold
MIC (μg/mL) for MRSA ATCC 33592 ([9]; Table 1 and text, cation-adjusted MH broth, ~10^5 CFU/mL, 37°C, 16 h): 6.25 µg/mL
MIC, S. aureus ATCC 33592 (SCCmec III) ([9]; Table S5, STIP3 variants, highest conc. tested 100 μg/mL, cation-adjusted MH broth, ~10^5 CFU/mL, 2-fold dilution series, 37°C, 16 h): 6.25 µg/mL
MIC for MRSA, molar ([9]; conversion of 6.25 μg/mL): 3.3 µM
MIC, S. aureus ATCC BAA 2313 (SCCmec XI) [10]: 6.25 µg/mL
MIC, S. aureus ATCC BAA 2094 (SCCmec V) [11]: 6.25 µg/mL
MIC, S. aureus ATCC 29213 [12]: 12.5 µg/mL
α-Helical content (%) [13]: 61%
MIC, S. equorum [14]: 3.13 µg/mL
